Assays:
[1] = target: T1, Tyrosine-protein phosphatase non-receptor type 1 [1-298] (Homo sapiens, UniProt P18031); test: PTP1B and TCPTP Inhibition Assay; conditions: pH 7.5; 22 °C
T1 construct: 1-298
T1 sequence (P18031 whole entry): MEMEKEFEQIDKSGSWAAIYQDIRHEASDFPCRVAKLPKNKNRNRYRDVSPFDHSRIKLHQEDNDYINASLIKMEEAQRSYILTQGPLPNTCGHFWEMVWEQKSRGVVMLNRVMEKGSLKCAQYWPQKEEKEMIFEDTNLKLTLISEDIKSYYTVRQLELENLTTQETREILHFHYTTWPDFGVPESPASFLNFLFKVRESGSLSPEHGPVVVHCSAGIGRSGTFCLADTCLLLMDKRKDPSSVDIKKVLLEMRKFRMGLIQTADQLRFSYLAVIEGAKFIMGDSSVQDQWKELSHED
Protocol: (§1) For each concentration of test compound or DMSO control, the initial rates were used to fit the rectangular hyperbola of Michaelis-Menten by nonlinear regression analysis. The ratio of the apparent Km/Vmax vs inhibitor concentration was plotted, and the Ki was calculated by linear regression to be the negative X-intercept.

[2] = target: T2, Tyrosine-protein phosphatase non-receptor type 2 (Homo sapiens, UniProt P17706); test: PTP1B and TCPTP Inhibition Assay; conditions: pH 7.5; 22 °C
T2 sequence (P17706 whole entry): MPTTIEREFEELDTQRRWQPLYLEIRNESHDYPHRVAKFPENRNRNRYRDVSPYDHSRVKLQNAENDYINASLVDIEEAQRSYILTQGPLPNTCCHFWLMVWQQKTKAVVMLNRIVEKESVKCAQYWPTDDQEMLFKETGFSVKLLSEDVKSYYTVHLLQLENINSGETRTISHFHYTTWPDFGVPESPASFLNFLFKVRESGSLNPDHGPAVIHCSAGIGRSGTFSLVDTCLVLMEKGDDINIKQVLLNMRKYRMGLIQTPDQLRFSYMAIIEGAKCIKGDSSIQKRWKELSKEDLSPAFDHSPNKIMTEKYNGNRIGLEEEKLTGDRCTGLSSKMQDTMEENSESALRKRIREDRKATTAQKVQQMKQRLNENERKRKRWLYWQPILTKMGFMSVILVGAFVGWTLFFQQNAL
Protocol: as §1

Ki [1] [µM] | Ki [2] [µM] | SMILES
293 | 164 | Cc1cccc(N(C(=O)C(=O)O)c2ccccc2C(=O)O)c1C
 | 44 | O=C(O)C(=O)N(c1ccccc1C(=O)O)c1cccc2ccccc12 [2-(Naphthalen-1-yloxalylamino)benzoic Acid]
 | 0.049 | CC(=O)N[C@@H](Cc1ccc(N(C(=O)C(=O)O)c2ccccc2C(=O)O)c2ccccc12)C(=O)NCCCCCOc1cc2ccccc2cc1C(=O)O [3-({5-[(N-Acetyl-3-{4-[(carboxycarbonyl)(2-carboxyphenyl)amino]-1-naphthyl}-L-alanyl)amino]pentyl}oxy)-2-naphthoic Acid]

Reference: BindingDB's records for doi:10.1021/ja0296733 (Abbott Laboratories, 2003)
